Test results taken from PMC6199744, “Development of Chemical Proteomics for the Folateome and Analysis of the Kinetoplastid Folateome” (ACS Infectious Diseases, 2018).
Like-named read-outs stand apart in the source and are kept apart here.

How the values were obtained:
Type in all cases: binding
[1] = target: T1, HeLa cell extract proteins (Homo sapiens, UniProt O75131)
T1 construct: endogenous in cells; host or cells: HeLa cell extract

[2] = target: T2, HeLa cell extract proteins (Homo sapiens, UniProt Q9BPW8)
T2 construct: endogenous in cells; host or cells: HeLa cell extract
T2 sequence (Q9BPW8 36-284): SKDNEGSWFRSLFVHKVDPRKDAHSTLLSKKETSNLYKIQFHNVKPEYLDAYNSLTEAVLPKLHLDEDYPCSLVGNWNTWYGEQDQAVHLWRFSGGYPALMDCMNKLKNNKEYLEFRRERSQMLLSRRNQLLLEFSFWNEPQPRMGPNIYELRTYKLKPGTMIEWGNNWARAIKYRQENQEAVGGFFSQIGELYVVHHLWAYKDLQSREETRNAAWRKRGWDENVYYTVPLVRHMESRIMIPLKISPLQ

[3] = target: T3, HeLa cell extract proteins (Homo sapiens, UniProt Q9UPT8)
T3 construct: endogenous in cells; host or cells: HeLa cell extract

[4] = target: T4, HeLa cell extract proteins (Homo sapiens, UniProt Q9Y490)
T4 construct: endogenous in cells; host or cells: HeLa cell extract

[5] = target: T5, HeLa cell extract proteins (Homo sapiens, UniProt Q969Y2); conditions: captured protein GTPBP3; HeLa
T5 construct: endogenous in cells; host or cells: HeLa cell extract
T5 sequence (Q969Y2 21-492): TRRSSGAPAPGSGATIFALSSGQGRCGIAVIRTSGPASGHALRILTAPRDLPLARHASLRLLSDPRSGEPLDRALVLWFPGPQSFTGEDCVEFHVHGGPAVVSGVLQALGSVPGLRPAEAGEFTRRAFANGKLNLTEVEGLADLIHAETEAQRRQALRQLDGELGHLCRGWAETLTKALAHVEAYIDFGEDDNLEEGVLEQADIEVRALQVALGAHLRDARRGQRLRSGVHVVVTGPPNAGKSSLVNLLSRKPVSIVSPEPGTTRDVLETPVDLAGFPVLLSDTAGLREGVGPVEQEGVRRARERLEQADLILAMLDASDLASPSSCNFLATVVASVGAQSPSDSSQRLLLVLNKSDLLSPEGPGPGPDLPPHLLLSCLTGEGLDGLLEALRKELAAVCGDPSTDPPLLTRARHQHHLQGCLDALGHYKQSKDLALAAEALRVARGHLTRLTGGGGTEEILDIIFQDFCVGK

[6] = target: T6, HeLa cell extract proteins (Homo sapiens, UniProt Q9NQC3); conditions: HeLa; protein RTN4
T6 construct: endogenous in cells; host or cells: HeLa cell extract
T6 sequence (Q9NQC3 1-1192): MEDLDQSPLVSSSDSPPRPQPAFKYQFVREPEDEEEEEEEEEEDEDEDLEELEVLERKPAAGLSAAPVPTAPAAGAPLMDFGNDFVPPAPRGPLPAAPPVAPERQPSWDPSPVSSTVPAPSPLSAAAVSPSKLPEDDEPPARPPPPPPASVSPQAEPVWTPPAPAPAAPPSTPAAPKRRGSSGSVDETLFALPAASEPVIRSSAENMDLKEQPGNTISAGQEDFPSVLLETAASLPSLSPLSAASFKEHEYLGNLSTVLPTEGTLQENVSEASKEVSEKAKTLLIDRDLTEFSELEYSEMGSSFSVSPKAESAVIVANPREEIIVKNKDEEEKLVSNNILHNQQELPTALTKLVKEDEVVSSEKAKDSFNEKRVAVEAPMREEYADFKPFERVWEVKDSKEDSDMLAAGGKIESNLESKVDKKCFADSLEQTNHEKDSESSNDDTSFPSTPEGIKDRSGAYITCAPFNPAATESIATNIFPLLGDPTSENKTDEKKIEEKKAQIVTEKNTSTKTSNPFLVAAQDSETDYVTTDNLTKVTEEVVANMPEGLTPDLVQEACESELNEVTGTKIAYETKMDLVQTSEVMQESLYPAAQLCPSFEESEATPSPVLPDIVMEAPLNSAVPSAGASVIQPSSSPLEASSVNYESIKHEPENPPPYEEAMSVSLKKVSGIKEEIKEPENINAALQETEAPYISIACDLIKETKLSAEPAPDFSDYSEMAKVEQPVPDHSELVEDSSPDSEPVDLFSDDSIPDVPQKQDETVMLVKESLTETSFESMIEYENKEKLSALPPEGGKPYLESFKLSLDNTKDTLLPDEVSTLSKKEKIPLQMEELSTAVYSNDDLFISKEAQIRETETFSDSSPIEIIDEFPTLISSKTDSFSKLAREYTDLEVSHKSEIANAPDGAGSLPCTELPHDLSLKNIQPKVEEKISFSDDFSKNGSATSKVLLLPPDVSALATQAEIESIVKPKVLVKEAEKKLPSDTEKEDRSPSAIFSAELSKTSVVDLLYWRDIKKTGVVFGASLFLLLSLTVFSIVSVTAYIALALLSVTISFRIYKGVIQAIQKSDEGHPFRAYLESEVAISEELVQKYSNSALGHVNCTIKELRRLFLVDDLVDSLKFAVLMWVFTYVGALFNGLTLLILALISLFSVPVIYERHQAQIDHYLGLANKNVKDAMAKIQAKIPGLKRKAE

T4 sequence (Q9Y490 whole entry): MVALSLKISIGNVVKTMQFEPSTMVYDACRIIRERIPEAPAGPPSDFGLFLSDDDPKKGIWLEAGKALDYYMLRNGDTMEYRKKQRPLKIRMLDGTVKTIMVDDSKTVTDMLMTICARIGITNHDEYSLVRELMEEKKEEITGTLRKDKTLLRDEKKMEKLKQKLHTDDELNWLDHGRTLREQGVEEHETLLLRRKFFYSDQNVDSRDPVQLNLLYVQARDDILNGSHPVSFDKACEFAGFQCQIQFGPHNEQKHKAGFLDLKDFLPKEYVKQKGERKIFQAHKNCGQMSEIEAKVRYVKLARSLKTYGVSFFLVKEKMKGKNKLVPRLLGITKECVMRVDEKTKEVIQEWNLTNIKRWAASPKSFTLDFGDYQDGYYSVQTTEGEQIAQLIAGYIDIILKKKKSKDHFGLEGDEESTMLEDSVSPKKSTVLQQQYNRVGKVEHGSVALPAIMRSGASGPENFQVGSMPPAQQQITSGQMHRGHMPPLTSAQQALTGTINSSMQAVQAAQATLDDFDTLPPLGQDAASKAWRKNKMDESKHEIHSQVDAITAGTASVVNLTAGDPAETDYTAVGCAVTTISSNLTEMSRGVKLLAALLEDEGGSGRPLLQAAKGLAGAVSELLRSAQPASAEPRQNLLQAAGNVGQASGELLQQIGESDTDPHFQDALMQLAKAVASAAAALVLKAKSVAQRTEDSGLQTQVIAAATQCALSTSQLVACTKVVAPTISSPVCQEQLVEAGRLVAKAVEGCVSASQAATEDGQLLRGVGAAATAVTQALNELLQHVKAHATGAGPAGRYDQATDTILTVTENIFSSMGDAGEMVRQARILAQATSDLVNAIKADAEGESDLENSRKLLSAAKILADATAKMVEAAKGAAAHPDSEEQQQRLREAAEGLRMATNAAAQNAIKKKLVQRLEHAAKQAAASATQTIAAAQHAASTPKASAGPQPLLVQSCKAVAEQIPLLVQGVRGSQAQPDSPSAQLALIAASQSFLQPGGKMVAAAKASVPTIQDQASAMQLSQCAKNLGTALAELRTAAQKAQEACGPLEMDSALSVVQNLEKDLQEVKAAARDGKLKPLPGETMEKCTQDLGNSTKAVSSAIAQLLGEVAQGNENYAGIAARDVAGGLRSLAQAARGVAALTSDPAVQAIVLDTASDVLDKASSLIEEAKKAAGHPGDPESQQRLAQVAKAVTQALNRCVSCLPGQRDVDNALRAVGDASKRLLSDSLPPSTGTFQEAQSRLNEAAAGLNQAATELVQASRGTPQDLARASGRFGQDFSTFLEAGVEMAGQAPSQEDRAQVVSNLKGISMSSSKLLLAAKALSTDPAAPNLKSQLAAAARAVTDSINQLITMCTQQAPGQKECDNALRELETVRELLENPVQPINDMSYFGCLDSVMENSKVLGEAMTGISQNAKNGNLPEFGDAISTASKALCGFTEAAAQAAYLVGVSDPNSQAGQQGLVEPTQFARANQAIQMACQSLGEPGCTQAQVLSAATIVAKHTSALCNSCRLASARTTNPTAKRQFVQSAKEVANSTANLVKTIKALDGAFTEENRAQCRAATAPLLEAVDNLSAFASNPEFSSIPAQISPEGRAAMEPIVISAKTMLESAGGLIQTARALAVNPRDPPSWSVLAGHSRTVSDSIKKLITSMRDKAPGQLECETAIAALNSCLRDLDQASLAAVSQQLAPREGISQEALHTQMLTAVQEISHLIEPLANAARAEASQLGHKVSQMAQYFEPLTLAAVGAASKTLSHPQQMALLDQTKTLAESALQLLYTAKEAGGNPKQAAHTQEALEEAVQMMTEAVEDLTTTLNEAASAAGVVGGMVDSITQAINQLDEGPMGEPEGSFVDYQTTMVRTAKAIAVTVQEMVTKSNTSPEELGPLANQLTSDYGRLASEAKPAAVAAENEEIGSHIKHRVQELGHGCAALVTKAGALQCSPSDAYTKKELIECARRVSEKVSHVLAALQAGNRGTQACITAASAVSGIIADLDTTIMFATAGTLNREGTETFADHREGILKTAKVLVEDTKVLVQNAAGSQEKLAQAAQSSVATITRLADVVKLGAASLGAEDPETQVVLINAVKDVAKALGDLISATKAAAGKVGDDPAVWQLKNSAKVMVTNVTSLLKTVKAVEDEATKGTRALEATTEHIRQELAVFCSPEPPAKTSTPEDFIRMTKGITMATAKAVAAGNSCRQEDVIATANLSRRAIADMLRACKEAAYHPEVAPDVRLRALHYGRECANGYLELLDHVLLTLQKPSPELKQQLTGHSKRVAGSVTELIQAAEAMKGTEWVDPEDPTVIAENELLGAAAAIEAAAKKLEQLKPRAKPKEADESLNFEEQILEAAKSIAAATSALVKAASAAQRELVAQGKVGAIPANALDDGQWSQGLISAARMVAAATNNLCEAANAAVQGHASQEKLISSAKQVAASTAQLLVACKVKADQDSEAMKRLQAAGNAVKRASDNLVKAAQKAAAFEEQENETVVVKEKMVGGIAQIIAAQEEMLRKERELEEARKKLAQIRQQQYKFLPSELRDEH
T3 sequence (Q9UPT8 whole entry): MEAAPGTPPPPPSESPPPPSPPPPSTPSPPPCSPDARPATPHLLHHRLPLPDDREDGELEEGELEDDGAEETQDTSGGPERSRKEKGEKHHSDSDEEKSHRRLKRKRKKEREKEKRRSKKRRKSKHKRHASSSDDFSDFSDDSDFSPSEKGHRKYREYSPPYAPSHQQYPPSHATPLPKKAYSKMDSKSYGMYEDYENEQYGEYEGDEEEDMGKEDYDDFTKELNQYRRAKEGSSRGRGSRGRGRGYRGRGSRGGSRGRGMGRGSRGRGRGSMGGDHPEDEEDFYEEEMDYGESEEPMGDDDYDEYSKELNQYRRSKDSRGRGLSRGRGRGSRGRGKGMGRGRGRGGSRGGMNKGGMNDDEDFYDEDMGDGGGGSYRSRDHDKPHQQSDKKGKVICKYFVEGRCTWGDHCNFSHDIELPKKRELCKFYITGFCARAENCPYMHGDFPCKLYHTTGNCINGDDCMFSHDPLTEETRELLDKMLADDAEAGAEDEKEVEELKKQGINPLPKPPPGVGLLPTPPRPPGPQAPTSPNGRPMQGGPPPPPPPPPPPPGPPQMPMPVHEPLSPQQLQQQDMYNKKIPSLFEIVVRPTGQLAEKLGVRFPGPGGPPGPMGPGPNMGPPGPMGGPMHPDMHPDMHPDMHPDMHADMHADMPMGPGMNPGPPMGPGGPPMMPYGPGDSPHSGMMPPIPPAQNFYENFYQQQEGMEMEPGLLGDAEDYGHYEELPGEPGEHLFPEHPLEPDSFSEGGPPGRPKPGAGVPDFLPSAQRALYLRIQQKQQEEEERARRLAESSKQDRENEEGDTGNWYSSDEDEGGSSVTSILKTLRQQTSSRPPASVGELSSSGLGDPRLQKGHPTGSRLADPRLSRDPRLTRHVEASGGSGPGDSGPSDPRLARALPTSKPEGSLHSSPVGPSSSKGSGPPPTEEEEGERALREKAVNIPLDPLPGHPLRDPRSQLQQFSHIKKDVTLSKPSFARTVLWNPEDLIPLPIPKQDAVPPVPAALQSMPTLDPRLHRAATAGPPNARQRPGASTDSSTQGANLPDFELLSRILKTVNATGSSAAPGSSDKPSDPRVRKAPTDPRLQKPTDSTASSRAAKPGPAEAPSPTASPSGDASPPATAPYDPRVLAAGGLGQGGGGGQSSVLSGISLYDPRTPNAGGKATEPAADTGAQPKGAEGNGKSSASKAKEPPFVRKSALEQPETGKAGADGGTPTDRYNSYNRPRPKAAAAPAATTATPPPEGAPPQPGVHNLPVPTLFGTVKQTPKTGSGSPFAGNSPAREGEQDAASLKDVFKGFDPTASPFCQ
T1 sequence (O75131 whole entry): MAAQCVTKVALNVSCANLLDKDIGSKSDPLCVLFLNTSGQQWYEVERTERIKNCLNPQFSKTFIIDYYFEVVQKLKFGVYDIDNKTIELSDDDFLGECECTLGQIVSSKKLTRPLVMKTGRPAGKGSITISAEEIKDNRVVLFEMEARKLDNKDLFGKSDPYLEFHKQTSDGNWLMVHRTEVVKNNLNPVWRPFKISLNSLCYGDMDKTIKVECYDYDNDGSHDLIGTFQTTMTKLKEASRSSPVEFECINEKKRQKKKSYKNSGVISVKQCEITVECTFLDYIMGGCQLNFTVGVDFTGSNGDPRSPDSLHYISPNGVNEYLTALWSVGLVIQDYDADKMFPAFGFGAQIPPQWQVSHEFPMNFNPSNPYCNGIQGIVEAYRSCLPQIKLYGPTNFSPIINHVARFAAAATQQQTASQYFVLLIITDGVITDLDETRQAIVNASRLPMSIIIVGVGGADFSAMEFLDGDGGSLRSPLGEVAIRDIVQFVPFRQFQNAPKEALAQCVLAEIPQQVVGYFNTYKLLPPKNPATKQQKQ

SMILES	fold changes relative to vehicle control ([1]; HeLa, protein CPNE3)	fold changes relative to vehicle control ([2]; HeLa, protein NIPSNAP1)	fold changes relative to vehicle control ([3]; HeLa, protein ZC3H4)	fold changes relative to vehicle control ([4]; protein TLN1, HeLa)	fold changes relative to vehicle control [5]	fold changes relative to vehicle control [6]	other results
Nc1nc2c(c(=O)[nH]1)N(C=O)C(CNc1ccc(C(=O)N[C@@H](CCC(=O)O)C(=O)O)cc1)CN2 (stereo partly shown) [LEU, leucovorin]	1.23	1.02	0.99	0.67			
NCCCNc1ccc(C(=O)NC(CCC(=O)O)C(=O)O)cc1 (stereo not shown) [compound 7]	0.85	1.03	1.01	0.78			
CCCCCCOc1cccc(Cc2cnc(N)nc2N)c1 [compound 2]					1.05	1.21	
CCCCCCOc1ccc(Cc2cnc(N)nc2N)cc1 [compound 1]					0.4	0.39	
Nc1nc2cccc(-c3ccccc3)c2n1Cc1ccc(Cl)c(Cl)c1 [compound 3]					0.95	1	
NCCOCCOCC(=O)Nc1nc2ncc(CNc3ccc(C(=O)NC(CCC(=O)O)C(=O)O)cc3)nc2c(=O)[nH]1 (stereo not shown) [compound 6]	0.91	1.04	1.1	0.72			
Nc1nc2[nH]cc(CCc3ccc(C(=O)N[C@@H](CCC(=O)O)C(=O)O)cc3)c2c(=O)[nH]1 [PTX, pemetrexed]							fold changes relative to vehicle control [1]: 0.77; fold changes relative to vehicle control [2]: 1.03; fold changes relative to vehicle control [3]: 1.06; fold changes relative to vehicle control [4]: 1.01
